Entries after “also recorded” stand apart in the source; their conditions may differ. Each block holds one compound with its values, some of them ahead of it.
What was measured:
[1] = Effect of solvent viscosity on fluorescence intensity (molecular rotor); format: physicochemical; conditions: 100 μM, rt, solvents of similar polarity
Protocol: The fluorescence spectra of compound (BDC-9) in different solvents of similar polarities but covering a range of viscosities were analyzed. […] Increased solvent viscosity reduces bond rotation at positions 3 and 5 of the BODIPY core, which, without being bound to theory, minimizes non-radiative energy loss and leads to higher quantum yields (24).

HSA (fatty-acid free) = HSA (fatty-acid free) (Homo sapiens, UniProt P02768); assay: Competition with site-selective HSA-binding drugs; conditions: from competition assays
Protocol: HSA (fatty-acid free) (0.34 mg/mL, 5 μM) was preincubated for 2 h in phosphate buffer with different concentrations of the drugs (up to 200 μM) before BDC-9 (10 μM) was added. F is the fluorescence intensity at the indicated drug concentration and F0 is the fluorescence intensity with no drug added; λexc.: 460 nm, λem.: 575 nm; values are represented as means and error bars as standard deviations (n=3).
The binding properties of BDC-9 were studied. HSA consists of at least nine binding sites (34-38), amongst which fatty acid (FA) sites 1, 3 and 4 (Sudlow Site II), 5, 6 and 7 (Sudlow Site I) are known to have affinity for drug compounds (31,39-44). […] To verify specific binding and determine the binding site(s) of BDC-9 in HSA, competition assays using drugs binding to the respective sites (e.g. hemin (FA1 site)(71,72), dansyl-L-norvaline (FA3/4 sites) (73), propofol (FA3/4 and FA5 sites) (35), ibuprofen (FA3/4 and FA6 sites) (74) and warfarin (FA7 site) (74) were performed (75).
There have been several reports of fluorescent dyes binding to FA3/4 (48,49,73), FA6 (51) and FA7 (54,55,76) sites. The present invention represents the first known experimentally proven fluorescent dye binding to the FA1 site (76), in which binding is not dependent on contact with bound lipid (72). BDC-9 is therefore a valuable probe for examining the heme region on HSA.

[2] = Quantum yield measurements versus Acridine Yellow in EtOH; format: physicochemical
Procedure, shortened: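 Fluorescence quantum yield is relative to Acridine Yellow in EtOH (Φ 0.47), with excitation at 460 nm. Integrated emission at 510–700 nm was corrected for absorbance at the excitation wavelength and for solvent refractive index.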

[3] = Absorbance and fluorescence emission spectra (SpectraMax M2); format: physicochemical
Procedure, shortened: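 Absorbance and emission maxima measured on a SpectraMax M2 spectrophotometer, which also gave quantum yield data; analysis in GraphPrism.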

HSA [4] = biological target: T1, HSA (Homo sapiens, UniProt P02768); assay: Determination of dissociation constant with HSA (fluorescence titration, one-site model); conditions: HSA 10 μM, one-site specific binding model
Protocol: HSA (10 μM) was titrated against serial concentrations of BDC-9 (0.47 to 60 μM) and the fluorescence intensities were measured at 575 nm (λexc=460 nm). The fluorescence intensity of bound BDC-9 at each concentration was determined using the equation:
[formula] where F and F0 are the fluorescence intensities of a given concentration of BDC-9 with and without HSA respectively. Fsat is the fluorescence intensity at the same concentration of BDC-9 when fully bound.

human serum albumin = human serum albumin (Homo sapiens, UniProt P02768); assay: In vitro fluorescence screening against 84 biologically relevant analytes / 16 proteins; format: binding; conditions: 10 μM, 10 mM HEPES pH 7.4, 1% DMSO
Protocol: F0 is the fluorescence intensity of BDC-9 in HEPES buffer. Values are represented as means (n=4).
Amino-triazolyl-BODIPYs (10 μM) were screened in 10 mM HEPES buffer, pH 7.4, containing 1% DMSO. Fluorescence intensities were measured using a SpectraMax M2 platereader in 384-well plates. Excitation was provided at each compound's excitation range, and emission spectrum was obtained starting from at least 30 nm beyond the excitation wavelength. All the analytes were tested at four serial concentrations.
The fluorescent response of BDC, BDCAC and BDCCA was examined against 84 biologically relevant analytes that were categorized into nine different sets (i.e. pH standards, viscous solutions, genetic macromolecules, peptides, metal ions, redox molecules, nucleic acids, proteins and other metabolites).

HSA [5] = biological target: T1, HSA; assay: Fluorescence response to serial dilutions of HSA; format: binding
Protocol: Values are represented as means (n=3).
Mixtures of BDC-9 with HSA were prepared in phosphate buffer (pH 7.3, 1% DMSO) at room temperature and fluorescence measurements were taken after incubation for 2 h unless otherwise stated.

HSA [6] = biological target: T1, HSA; assay: Quantification of HSA in spiked urine samples; conditions: urine spiked with HSA up to 1 mg/mL
Protocol: HSA (0 to 1 mg/mL) was added to 10% urine from healthy individuals in phosphate buffer (pH=7.3). BDC-9 was added at 10 μM concentration; λexc.: 460 nm, λem.: 575 nm; values represented as means (n=3) and error bars as standard deviations; linear regression: R^2=0.998.
In order to examine the selectivity and sensitivity of BDC-9 in complex matrices, BDC-9 was utilized to quantify the amount of HSA in urine samples. Microalbuminuria, which involves an albumin excretion rate of 15 to 40 μg/mL (80, 81), is a well-established cardiovascular risk marker and an indication of liver and renal disease (32,33). The fluorescence response of BDC-9 was analyzed in urine that was spiked with different amounts of HSA, up to 1 mg/mL.

[7] = tested on: serum albumins from rat (RSA), porcine (PSA), rabbit (RbSA), sheep (SSA) and bovine (BSA); assay: Species selectivity: fluorescence response to serum albumins of different species; format: binding; conditions: 10 μM, albumins 1.2×10^−4 to 4 mg/mL
Protocol: FIGS. 7a and 7b show species selectivity of BDC-9. […] FIG. 7b is a photographic image of BDC-9 (10 μM) mixed with respective albumins. Irradiation with a handheld UV lamp at 365 nm.
The selectivity of BDC-9 towards serum albumins from different species was investigated. Serum albumins represent a family of proteins with a high degree of similarity in their primary sequence across various species (˜75% homology) (34,39,40,62). […] The fluorescence response of BDC-9 was evaluated against serial concentrations of serum albumins from rat (RSA), porcine (PSA), rabbit (RbSA), sheep (SSA) and bovine (BSA).

[8] = tested on: mixed primary neural cell populations; assay: Flow cytometry analysis and FACS sorting of mixed primary neural cells; format: cell-based, mouse
Text: Unstained controls are shown in each spectrum from about 0 to about 1 G.
To further analyze this population of compound positive cells, the two populations (Bright and Dim) were sorted out cell re-culture and RNA extraction for gene analysis.

live neurons = assay: Live cell compound staining and immunostaining of mixed primary neural cell cultures; format: cell-based, mouse; conditions: 500 nM, brain cell preparations from P1-P3 mice
Protocol: Cells were stained with 500 nM of MKHA101-3 (Green) and imaged at 10× magnification before fixing with 4% PFA. They were then permeabilized with 0.1% Triton-X and immunostained with GFAP (Red) and neurons (Green).
Cells were stained with 500 nM of NeuO (Green) and imaged at 10× magnification before fixing with 4% PFA. They were then permeabilized with 0.1% Triton-X and immunostained with β-III-tubulin (Tuji, Yellow), GFAP (Red) and O4).
Using the heterogeneous brain cell preparations from P1-P3 mice, cells that were compound positive were also found to be β-III-tubulin positive (FIG. 17).
Using the heterogeneous brain cell preparations from P1-P3 mice, cells that were compound positive were also found to be β-III-tubulin (Tuji) positive (FIG. 18a). […] NeuO appears to stain all neurons regardless of subtype (FIG. 18b).

neurons = assay: Time lapse imaging of in vitro neuronal development; format: cell-based, mouse; conditions: 500 nM
Text: The survival of the cells and dye signal is critical in time lapse studies to analyze neuronal development and interaction with other neural cells.

primary neurons [9] = assay: Neuron viability, MTS cell cytotoxicity assay (Promega); format: cell-based, mouse; conditions: 24 hour incubation, 500 nM or higher
Protocol: Primary neurons were isolated from P1-3 mouse pups by preferential adherence to poly-D-lysine coating. They were left to mature for 5 days before addition of compound at the stipulated concentrations for 24 h. The MTS assay (Promega) was used to assess viability according to manufacturer's instructions.
For long term tracking and downstream functional studies, it is critical that the compound is not cytotoxic towards the cells and that cells remain viable after staining.

primary neurons [10] = assay: Primary brain cell screening platform (neurons, astrocytes, microglia); format: cell-based; conditions: 500 nM, 1 hour
Text: Esterification to MKAA (and possibly other esters) improves permeability into intact live cells while maintaining staining specificity (FIG. 12). The acetylated MKAA undergoes rapid hydrolysis by cellular esterases after crossing the live cell membrane generates the active MKHA compound responsible for the fluorescence response. FIGS. 13 and 14 show the structures of example MKHA compounds that have been synthesized and tested for primary neuron staining.
For neuron probe discovery, a primary brain cell screening platform was utilized, which involved the use of primary neurons, astrocytes and microglia isolated by differential adhesion methods. These cells were prepared alongside one another in 384-well microplates and incubated in duplicate with 5,000 DOFL compounds at 500 nM concentrations for 1 hour at 4-5 days post-isolation (FIG. 15). […] The compound MKHA374-48 is alternately referred to herein as NeuO (pronounced “neo”) for Neuron Orange.

T1 sequence (P02768 25-609): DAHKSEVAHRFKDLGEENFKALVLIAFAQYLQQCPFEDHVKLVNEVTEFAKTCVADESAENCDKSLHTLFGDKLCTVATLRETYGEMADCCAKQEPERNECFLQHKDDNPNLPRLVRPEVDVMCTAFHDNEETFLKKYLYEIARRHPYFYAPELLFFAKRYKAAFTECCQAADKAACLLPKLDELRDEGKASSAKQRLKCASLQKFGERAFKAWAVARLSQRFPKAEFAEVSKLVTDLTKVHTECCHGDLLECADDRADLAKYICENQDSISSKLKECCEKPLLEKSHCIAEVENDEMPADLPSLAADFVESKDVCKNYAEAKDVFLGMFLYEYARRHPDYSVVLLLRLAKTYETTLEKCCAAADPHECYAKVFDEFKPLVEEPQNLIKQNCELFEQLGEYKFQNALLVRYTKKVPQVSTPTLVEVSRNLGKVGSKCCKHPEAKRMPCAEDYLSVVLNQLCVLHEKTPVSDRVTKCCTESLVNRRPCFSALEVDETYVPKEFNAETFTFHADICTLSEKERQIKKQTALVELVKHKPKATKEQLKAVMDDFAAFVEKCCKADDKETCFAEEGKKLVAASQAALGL
Sequence of human serum albumin (P02768 25-609): as above
Sequence of HSA (fatty-acid free) (P02768 25-609): as above

φ (quantum yield) ([2]; BDC library, Table 2, excitation 460 nm): 0.22%
λmax Absorp. ([3]; BDC library, Table 2): 472 nm
λmax Emission ([3]; BDC library, Table 2): 581 nm
Kd (HSA [4]): 12.7 ± 0.4 µM
increase in fluorescence upon binding to HSA (HSA [5]; 10 μM, phosphate buffer, λexc 460 nm): 220 fold
limit of detection of HSA (HSA [5]; S/N=3): 0.3 µg/mL
correlation between fluorescence response and amount of HSA in urine (HSA [6]): excellent linear correlation
Compound: Nc1ccc(C2=C3C=CC(N4CCCCC4)=[N+]3[B-](F)(F)n3c2ccc3-n2cc(-c3ccccc3)nn2)cc1 [BDC-9, 10-(4-aminophenyl)-5,5-difluoro-7-(4-phenyl-1H-1,2,3-triazol-1-yl)-3-(piperidin-1-yl)-5H-dipyrrolo[1,2-c:2′,1′-f][1,3,2]diazaborinin-4-ium-5-uide]
fluorescence intensity versus solvent viscosity [1]: systematically increased in more viscous alcohols; also recorded: strong correlation between fluorescence intensity and viscosity
binding site on HSA (HSA (fatty-acid free)): binding to the FA1 site (heme site) of HSA
selectivity of fluorescence response among proteins and analytes (human serum albumin): remarkable selectivity towards human serum albumin
selectivity towards HSA versus serum albumins from other species [7]: marked selectivity towards HSA with marginal response on the other species

φ (%) ([2]; MKHA compounds, quantum yield): 0.3684%
absorbance λmax ([3]; FIG. 2 normalized spectra): 468 nm
emission λmax ([3]; FIG. 2 normalized spectra): 557 nm
λmax Absorp. (nm) ([3]; MKHA compounds, absorbance maximum): 468 nm
λmax Emission (nm) ([3]; MKHA compounds, fluorescence emission maximum): 557 nm
Compound: CCCc1cn(C2=[N+]3C(=C(c4ccc(NC(=O)CO)cc4)c4ccc(NCc5ccccc5)n4[B-]3(F)F)C=C2)nn1 [MKHA374-48, 7-(benzylamino)-5,5-difluoro-10-(4-(2-hydroxyacetamido)phenyl)-3-(4-propyl-1H-1,2,3-triazol-1-yl)-5H-dipyrrolo[1,2-c:2′,1′-][1,3,2]diazaborinin-4-ium-5-uide]
flow cytometry profile of stained mixed neural cell populations [8]: neuronal population segregating from the main population
staining specificity for neurons over other neural cells (live neurons): stains the cell bodies and dendrites specifically over other neural cells
time lapse imaging of stained neurons (neurons): Bright NeuO stained neurons can be seen migrating from the interior of the sphere
effect on cell viability (primary neurons [9]): did not affect cell viability significantly
fluorescence response / selectivity towards primary neurons in screening (primary neurons [10]): superior selectivity towards live neurons compared to the original MKHA101-3

Source: US9513294B2, “Megastokes amino-triazolyl-BODIPY compounds and applications to live neuron staining and human serum albumin FA1 drug site probing” (National University of Singapore, priority 2012, dated 2016)
